# Source: ChEMBL document CHEMBL6134781, “In vitro identification of oridonin hybrids as potential anti-TNBC agents inducing cell cycle arrest and apoptosis by regulation of p21, γH2AX and cleaved PARP” (RSC Med Chem, 2024)
# The source made the active and inactive calls. No cut-off for these calls is given here.
# Tests used:
# HCC1806 [1] = assay: Induction of apoptosis in human HCC1806 cells assessed as late apoptotic cells at 3 uM incubated for 24 hrs by Annexin V-FITC/PI staining based flow cytometry (reference value: 1.48 %); assay type: functional
# HCC1937 [2] = assay: Cytotoxicity against human HCC1937 cells assessed as inhibition of cell viability incubated for 72 hrs by SRB assay; assay type: functional, cell-based; conditions: HCC1937, 72 h
# HCC1937 [3] = assay: Induction of cell cycle arrest in human HCC1937 cells assessed as increase in p21 level incubated for 16 hrs by Western blot analysis; assay type: functional, cell-based; conditions: dose 1-3 µM
# MDA-MB-468 [4] = assay: Induction of apoptosis in human MDA-MB-468 cells assessed as late apoptotic cells at 3 uM incubated for 24 hrs by Annexin V-FITC/PI staining based flow cytometry (reference value: 3.84 %); assay type: functional
# HCC1806 [5] = assay: Induction of apoptosis in human HCC1806 cells assessed as early apoptotic cells at 1 uM incubated for 24 hrs by Annexin V-FITC/PI staining based flow cytometry (reference value: 3.06 %); assay type: functional
# MDA-MB-468 [6] = assay: Induction of apoptosis in human MDA-MB-468 cells assessed as necrotic cells at 1 uM incubated for 24 hrs by Annexin V-FITC/PI staining based flow cytometry (reference value: 4.11 %); assay type: functional
# MDA-MB-231 [7] = assay: Induction of DNA damage in human MDA-MB-231 cells assessed as increase in gamma-H2AX level incubated for 16 hrs by Western blot analysis; assay type: functional, cell-based; conditions: dose 1-3 µM
# HCC1937 [8] = assay: Effect on cell cycle distribution in human HCC1937 cells at 1 to 3 uM incubated for 16 hrs by PI staining based flow cytometry; assay type: functional; conditions: dose 1-3 µM
# HCC1806 [9] = assay: Induction of DNA damage in human HCC1806 cells assessed as increase in gamma-H2AX level incubated for 24 hrs by Western blot analysis; assay type: functional, cell-based; conditions: dose 1-3 µM
# MDA-MB-468 [10] = assay: Cytotoxicity against human MDA-MB-468 cells assessed as inhibition of cell viability incubated for 72 hrs by SRB assay; assay type: functional, cell-based; conditions: MDA-MB-468, 72 h
# HCC1806 [11] = assay: Induction of cell cycle arrest in human HCC1806 cells assessed as increase in p21 level incubated for 16 hrs by Western blot analysis; assay type: functional, cell-based; conditions: dose 1-3 µM
# MDA-MB-231 [12] = assay: Cytotoxicity against human MDA-MB-231 cells assessed as inhibition of cell viability incubated for 72 hrs by SRB assay; assay type: functional, cell-based; conditions: MDA-MB-231, 72 h
# HCC1806 [13] = assay: Induction of apoptosis in human HCC1806 cells assessed as viable cells at 1 uM incubated for 24 hrs by Annexin V-FITC/PI staining based flow cytometry (reference value: 95.4 %); assay type: functional; conditions: read-out: Activity
# MDA-MB-468 [14] = assay: Induction of apoptosis in human MDA-MB-468 cells assessed as necrotic cells at 3 uM incubated for 24 hrs by Annexin V-FITC/PI staining based flow cytometry (reference value: 4.11 %); assay type: functional
# MDA-MB-468 [15] = assay: Induction of apoptosis in human MDA-MB-468 cells assessed as increase in cleaved PARP-1 level incubated for 24 hrs by Western blot analysis; assay type: functional, cell-based; conditions: dose 1-3 µM
# HCC1806 [16] = assay: Induction of apoptosis in human HCC1806 cells assessed as necrotic cells at 3 uM incubated for 24 hrs by Annexin V-FITC/PI staining based flow cytometry (reference value: 0.049 %); assay type: functional
# MDA-MB-231 [17] = assay: Induction of apoptosis in human MDA-MB-231 cells assessed as late apoptotic cells at 1 uM incubated for 16 hrs by Annexin V-FITC/PI staining based flow cytometry (reference value: 4.62 %); assay type: functional
# HCC1806 [18] = assay: Induction of apoptosis in human HCC1806 cells assessed as early apoptotic cells at 3 uM incubated for 24 hrs by Annexin V-FITC/PI staining based flow cytometry (reference value: 3.06 %); assay type: functional
# MDA-MB-468 [19] = assay: Effect on p21 expression in human MDA-MB-468 cells at 1 to 3 uM incubated for 16 hrs by Western blot analysis; assay type: functional, cell-based; conditions: dose 1-3 µM
# HCC1937 [20] = assay: Induction of DNA damage in human HCC1937 cells assessed as increase in gamma-H2AX level incubated for 24 hrs by Western blot analysis; assay type: functional, cell-based; conditions: dose 1-3 µM
# HCC1806 [21] = assay: Induction of apoptosis in human HCC1806 cells assessed as viable cells at 3 uM incubated for 24 hrs by Annexin V-FITC/PI staining based flow cytometry (reference value: 95.4 %); assay type: functional; conditions: read-out: Activity
compound,measurement,setting,value
C=C1C(=O)[C@]23[C@H](OC(=O)C45CC6CC(CC(C6)C4)C5)[C@H]1CC[C@H]2[C@@]12CO[C@]3(O)[C@@H](O)[C@@H]1C(C)(C)CC[C@@H]2O,Activity,HCC1806 [1],14.2%
same,IC50,HCC1937 [2],620 nM
same,Activity,HCC1937 [3],Dose-dependent-effect
same,Activity,MDA-MB-468 [4],3.22%
same,Activity,HCC1806 [5],4.92%
same,Activity,MDA-MB-468 [6],0.22%
same,Activity,MDA-MB-231 [7],Dose-dependent-effect
same,Activity,HCC1937 [8],Active
same,Activity,HCC1806 [9],Dose-dependent-effect
same,IC50,MDA-MB-468 [10],410 nM
same,Activity,HCC1806 [11],Dose-dependent-effect
same,IC50,MDA-MB-231 [12],400 nM
same,viability at 1 µM,HCC1806 [13],92.2%
same,Activity,MDA-MB-468 [14],0.44%
same,Activity,MDA-MB-468 [15],Dose-dependent-effect
same,Activity,HCC1806 [16],0.091%
same,Activity,MDA-MB-231 [17],1.92%
same,Activity,HCC1806 [18],11%
same,Activity,MDA-MB-468 [19],No effect
same,Activity,HCC1937 [20],Dose-dependent-effect
same,viability at 3 µM,HCC1806 [21],74.8%
